# Reference: patent publication US8961959B2, “Glucosylceramide synthase inhibitors and therapeutic methods using the same” (The Regents of the University of Michigan, priority 2011, dated 2015)
# Tested on: Sandhoff (Hexb−/−) mice
# Assay: Juvenile Sandhoff (Hexb−/−) mice treated with compound 3h
# Type: in vivo, mouse
# Conditions: for Neutral Lipids GA2: p-15 Sandhoff mice; for Total Siatic Acid: Hexb −/− p-15, 60 mg/kg/day i.p. p-9 to p-15, resorcinol assay
# Method: The SV/129 Hexb−/− mice were obtained from the NIH. The mice were derived by the disruption of the murine Hexb gene and transferring this gene into the mouse genome via homologous recombination and embryonic stem cell technology as previously described (38). The genotypes of mice were determined by PCR as previously described. Mice were propagated and housed in plastic cages with filter tops containing Sani-Chip bedding (P.J. Murphy Forest Products Corp.; Montville, N.J.). Food and water were provided ad libitum. Nursing females were provided with cotton nesting pads for the duration of the experiment.
# The solution was dried under nitrogen, resuspended in 3.6 ml distilled H2O, then dissolved at 42° C. in a shaking water bath. The solution was neutralized by adding 400 μl of 10× phosphate buffer saline (PBS), and was sterilized following passage through an Acrodisc 0.2 μm syringe filter (Sigma, St. Louis, Mo.). […] The mice were weighed daily and received intraperitoneal (i.p.) injections equivalent to 60 mg/kg from postnatal day 9 (p-9) to postnatal day 15 (p-15). Control mice received i.p. injections of PBS. Injections were performed using a Hamilton syringe (26 gauge, point style 2, 0.5 inch needle) (Hamilton, Reno, Nev.), and volumes ranged from 50 ul to 100 μl/mouse. The mice were sacrificed 4 hrs after the final injection on p-15. Cerebrum, cerebellum, and liver were dissected and frozen on dry ice to determine wet weight. The tissues then were homogenized in 3.0 ml distilled H2O, and 150 μl of each homogenate was set aside for analysis of protein and lysosomal enzyme activities. The remaining homogenate was frozen at −80° C., lyophilized, then weighed before lipid extraction. […]
# Lipid extraction of lyophilized tissue was performed overnight in 5 ml CHCl3:CH3OH 1:1 (v/v). Samples were spun down at 2500 rpm for 20 min, and the supernatant was collected. Pellets were washed in 2 ml CHCl3:CH3OH 1:1 (v/v), spun down again, and the total 7 ml of supernatant was brought up to a final volume of 19.6 ml at a ratio of 30:60:8 CHCl3:CH3OH:dH2O (v/v/v).
# Neutral lipids and cholesterol were separated from acidic lipids and gangliosides by ion exchange chromatography as we described (32, 28, 24). The total lipid extract, suspended in CHCl3:CH3OH:dH2O, 30:60:8 by volume (solvent A), was applied to a DEAE Sephadex column (1.2 mL bed volume) that had been equilibrated prior with solvent A (28). The column was washed twice with 20 mL solvent A and the entire neutral lipid fraction, consisting of the initial eluent plus washes, was collected. This fraction contained cholesterol, phosphatidylcholine, phosphatidylethanolamine and plasmalogens, sphingomyelin, and neutral GSLs to include cerebrosides and asialo-GM2 (GA2). Next, acidic lipids were eluted from the column with 35 mL CHCl3:CH3OH:0.8 M Na acetate, 30:60:8 by volume. Gangliosides were separated from acidic phospholipids by Folch partitioning, base treated, and desalted as previously described (32, 28). Neutral lipids were dried by rotary evaporation and resuspended in 10 mL CHCl3:CH3OH (2:1; v/v). A 4 mL aliquot was evaporated under nitrogen, base treated with 1 N NaOH, and Folch partitioned. The Folch lower phase containing GA2 was evaporated under nitrogen and resuspended in 4 mL CHCl3:CH3OH (2:1; v/v).
# Total ganglioside content was quantified before and after desalting using the resorcinol assay as previously described (28). Sialic acid values were fit to a standard curve using n-acetylneuraminic acid as a standard.
# All lipids were analyzed qualitatively by high-performance thin-layer chromatography (HPTLC) according to previously described methods (28, 24, 25). Lipids were spotted on 10 cm×20 cm Silica gel 60 HPTLC plates (E. Merck, Darmstadt, Germany) using a Camag Linomat III auto-TLC spotter (Camag Scientific, Inc., Wilmington, N.C.). […]
# [1] = Hexb −/− mice p-15, 60 mg/kg/day i.p. p-9 to p-15, mean ± SEM
# [2] = cerebellum, Hexb −/− p-15, 60 mg/kg/day
# [3] = cerebrum, Hexb −/− p-15, 60 mg/kg/day
# [4] = liver, Hexb −/− p-15, 60 mg/kg/day
structure (smiles),measurement,setting,value
"O=C(CC1Cc2ccccc2C1)N[C@H](CN1CCCC1)[C@H](O)c1ccc2c(c1)OCCO2 [Compound 3h, 2-(2,3-dihydro-1H-inden-2-yl)-N-((1R,2R)-1-(2,3-dihydrobenzo[b][1,4]dioxin-6-yl)-1-hydroxy-3-(pyrrolidin-1-yl)propan-2-yl)acetamide]",adverse effects on body weight over the treatment period,60 mg/kg/day p-9 to p-15,no adverse effects
same,Neutral Lipids GA2,Cerebellum,0.55 ± 0.01 mg/100 mg dry weight
same,Neutral Lipids GA2,Cerebrum,0.51 ± 0.01 mg/100 mg dry weight
same,Body Weight,"Hexb −/− mice p-15, 60 mg/kg/day i.p. p-9 to p-15 (oxalate), mean ± SEM",9.0 ± 0.5 g
same,Water Content Cerebellum,[1],83.88 ± 0.01%
same,Water Content Cerebrum,[1],84.45 ± 0.01%
same,Wet Weight Cerebellum,[1],87.7 ± 7.7 mg
same,Wet Weight Cerebrum,[1],271.0 ± 2.3 mg
same,Neutral Lipids GA2,Liver,1.10 ± 0.05 mg/100 mg dry weight
same,reduction of GM2 content,cerebellum of Hexb −/− mice,53%
same,total sialic content lower than in control Hexb −/− mice,"cerebellum, 60 mg/kg/day p-9 to p-15",14%
same,G1a Concentration,[2],76.6 ± 3.7 micrograms of sialic acid per 100 mg dry weight
same,G1a Percent,[2],24.1 ± 0.3%
same,GD1b Concentration,[2],42.1 ± 2.0 micrograms of sialic acid per 100 mg dry weight
same,GD1b Percent,[2],24.1 ± 0.3%
same,GD3 Concentration,[2],9.8 ± 1.2 micrograms of sialic acid per 100 mg dry weight
same,GD3 Percent,[2],4.3 ± 0.2%
same,GM1 Concentration,[2],17.4 ± 1.4 micrograms of sialic acid per 100 mg dry weight
same,GM1 Percent,[2],5.5 ± 0.4%
same,GM2 Concentration,[2],9.8 ± 1.2 micrograms of sialic acid per 100 mg dry weight
same,GM2 Percent,[2],3.1 ± 0.1%
same,GQ1b Concentration,[2],41.3 ± 3.8 micrograms of sialic acid per 100 mg dry weight
same,GQ1b Percent,[2],12.9 ± 0.1%
same,GT1a/LD1 Concentration,[2],22.9 ± 1.0 micrograms of sialic acid per 100 mg dry weight
same,GT1a/LD1 Percent,[2],7.2 ± 0.1%
same,GT1b Concentration,[2],94.4 ± 3.9 micrograms of sialic acid per 100 mg dry weight
same,GT1b Percent,[2],29.7 ± 0.8%
same,Total Siatic Acid,"cerebellum, mean ± SEM",318 ± 15
same,reduction of GM2 content,cerebrum of Hexb −/− mice,52%
same,total sialic content lower than in control Hexb −/− mice,"cerebrum, 60 mg/kg/day p-9 to p-15",11%
same,G1a Concentration,[3],187.4 ± 5.2 micrograms of sialic acid per 100 mg dry weight
same,G1a Percent,[3],43.4 ± 0.3%
same,GD1b Concentration,[3],31.7 ± 0.5 micrograms of sialic acid per 100 mg dry weight
same,GD1b Percent,[3],7.3 ± 0.1%
same,GM1 Concentration,[3],26.4 ± 1.6 micrograms of sialic acid per 100 mg dry weight
same,GM1 Percent,[3],6.1 ± 0.2%
same,GM2 Concentration,[3],87.7 ± 7.7 micrograms of sialic acid per 100 mg dry weight
same,GM2 Percent,[3],2.8 ± 0.1%
same,GQ1b Concentration,[3],33.3 ± 0.7 micrograms of sialic acid per 100 mg dry weight
same,GQ1b Percent,[3],7.7 ± 0.1%
same,GT1a/LD1 Concentration,[3],20.8 ± 0.7 micrograms of sialic acid per 100 mg dry weight
same,GT1a/LD1 Percent,[3],4.8 ± 0.3%
same,GT1b Concentration,[3],119.8 ± 3.3 micrograms of sialic acid per 100 mg dry weight
same,GT1b Percent,[3],27.8 ± 0.1%
same,Total Siatic Acid,"cerebrum, mean ± SEM",432 ± 11
same,body weight versus control Hexb −/− mice,in words,slightly higher
same,reduction of NGNA-GM2 content,"liver, versus PBS-treated Hexb −/− controls",45%
same,total sialic content lower than in control Hexb −/− mice,"liver, 60 mg/kg/day p-9 to p-15",38%
same,G1a Concentration,[4],12.2 ± 0.3 micrograms of sialic acid per 100 mg dry weight
same,G1a Percent,[4],17.6 ± 1.1%
same,GM1 Concentration,[4],15.4 ± 2.1 micrograms of sialic acid per 100 mg dry weight
same,GM1 Percent,[4],21.9 ± 1.5%
same,GM2 Concentration,[4],42.1 ± 2.6 micrograms of sialic acid per 100 mg dry weight
same,GM2 Percent,[4],60.5 ± 1.3%
same,Total Siatic Acid,"liver, mean ± SEM",70 ± 5
same,reduction of GA2 in Hexb −/− liver,p=0.06,not significant
